Reference: PubChem BioAssay AID330 (DTP/NCI, 2004)
“And” between values parts separate entries of the source, which are not always exact repeats. Equal values may be shown once. Inconclusive results and toxic doses are left out.

Test system: P388 leukemia ip, CD2F1 mice, survival T/C
Test: NCI In Vivo Anticancer Drug Screen. Data for tumor model P388 Leukemia (intraperitoneal) in CD2F1 (CDF1) mice
Conditions: endpoint: median survival time, higher = longer survival
In short: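 Mice carrying the transplanted tumor received test compound or vehicle. Survival was recorded in each group, and the value is the treated-group measurement divided by that of the vehicle-treated control group.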

[1] = dose: 50.0 mg/kg/injection, schedule: Q01DX009 (ip), vehicle: saline
[2] = dose: 100.0 mg/kg/injection, schedule: Q01DX009 (ip), vehicle: saline
[3] = dose: 50.0 mg/kg/injection, schedule: Q01DX005 (ip), vehicle: Klucel (hydroxypropylcellulose) (HPC)
[4] = dose: 100.0 mg/kg/injection, schedule: Q01DX005 (ip), vehicle: Klucel (hydroxypropylcellulose) (HPC)
[5] = dose: 200.0 mg/kg/injection, schedule: Q01DX005 (ip), vehicle: Klucel (hydroxypropylcellulose) (HPC)
[6] = dose: 50.0 mg/kg/injection, schedule: Q01DX009 (ip), vehicle: saline with Tween-80
[7] = dose: 100.0 mg/kg/injection, schedule: Q04DX003 (ip), vehicle: saline with Tween-80
[8] = dose: 200.0 mg/kg/injection, schedule: Q04DX003 (ip), vehicle: saline with Tween-80
[9] = dose: 400.0 mg/kg/injection, schedule: Q04DX003 (ip), vehicle: saline with Tween-80
[10] = dose: 60.0 mg/kg/injection, schedule: Q01DX005 (ip), vehicle: Klucel (hydroxypropylcellulose) (HPC)
[11] = dose: 120.0 mg/kg/injection, schedule: Q01DX005 (ip), vehicle: Klucel (hydroxypropylcellulose) (HPC)
[12] = dose: 50.0 mg/kg/injection, schedule: Q01DX005 (ip), vehicle: saline with Tween-80
[13] = dose: 60.0 mg/kg/injection, schedule: Q01DX005 (ip), vehicle: saline with Tween-80
[14] = dose: 100.0 mg/kg/injection, schedule: Q01DX005 (ip), vehicle: saline with Tween-80
[15] = dose: 120.0 mg/kg/injection, schedule: Q01DX005 (ip), vehicle: saline with Tween-80
[16] = dose: 240.0 mg/kg/injection, schedule: Q01DX005 (ip), vehicle: saline with Tween-80

## CN(C)C=O
dose: 12.5 mg/kg/injection, schedule: Q01DX009 (ip), vehicle: saline
  T/C: 103 % of control and 111 % of control
dose: 25.0 mg/kg/injection, schedule: Q01DX009 (ip), vehicle: saline
  T/C: 103 % of control and 107 % of control
[1]
  T/C: 107 % of control (2×) and 111 % of control
[2]
  T/C: 109 % of control and 115 % of control and 116 % of control
dose: 800.0 mg/kg/injection, schedule: Q01DX009 (ip), vehicle: saline
  T/C: 120 % of control
dose: 1600.0 mg/kg/injection, schedule: Q01DX009 (ip), vehicle: saline
  T/C: 118 % of control
dose: 2.0 % in 0.5 ml injection vol, schedule: Q01DX009 (ip), vehicle: water
  T/C: 107 % of control and 119 % of control
dose: 4.0 % in 0.5 ml injection vol, schedule: Q01DX009 (ip), vehicle: water
  T/C: 116 % of control and 119 % of control
dose: 8.0 % in 0.5 ml injection vol, schedule: Q01DX009 (ip), vehicle: water
  T/C: 119 % of control

## COc1ccc(-c2cc(=O)c3c(O)c(OC)c(OC)cc3o2)cc1O
dose: 18.8 mg/kg/injection, schedule: Q04DX002 (ip), vehicle: saline with Tween-80
  T/C: 96 % of control
dose: 37.5 mg/kg/injection, schedule: Q04DX002 (ip), vehicle: saline with Tween-80
  T/C: 102 % of control
dose: 75.0 mg/kg/injection, schedule: Q04DX002 (ip), vehicle: saline with Tween-80
  T/C: 93 % of control
dose: 150.0 mg/kg/injection, schedule: Q04DX002 (ip), vehicle: saline with Tween-80
  T/C: 96 % of control

## Cc1ccc(S(=O)(=O)NC(=O)Nc2ccccc2SC2CCc3ccccc32)cc1 (stereo unspecified)
[3]
  T/C: 105 % of control
[4]
  T/C: 108 % of control
[5]
  T/C: 102 % of control

## CC(=O)[C@@]1(O)CC[C@H]2[C@@H]3C=C(C)C4=CC(=O)CC[C@]4(C)[C@@]3(F)[C@@H](O)C[C@@]21C
dose: 12.5 mg/kg/injection, schedule: Q01DX009 (ip), vehicle: saline with Tween-80
  T/C: 100 % of control
dose: 25.0 mg/kg/injection, schedule: Q01DX009 (ip), vehicle: saline with Tween-80
  T/C: 90 % of control
[6]
  T/C: 109 % of control
[7]
  T/C: 91 % of control
[8]
  T/C: 95 % of control
[9]
  T/C: 100 % of control

## O=C(O)c1cccc(C(=O)O)c1S(=O)c1ccccc1 (stereo unspecified)
dose: 100.0 mg/kg/injection, schedule: Q04DX002 (ip), vehicle: other
  T/C: 102 % of control
dose: 200.0 mg/kg/injection, schedule: Q04DX002 (ip), vehicle: other
  T/C: 103 % of control
dose: 400.0 mg/kg/injection, schedule: Q04DX002 (ip), vehicle: other
  T/C: 94 % of control

## CC1(C)NC(=S)N(O)C1(C)C
[1]
  T/C: 111 % of control
[2]
  T/C: 98 % of control

## OC1COC(O)(CNCCc2c[nH]c3ccc(OCc4ccccc4)cc23)C(O)C1O (stereo unspecified)
[10]
  T/C: 101 % of control
[11]
  T/C: 99 % of control
dose: 240.0 mg/kg/injection, schedule: Q01DX005 (ip), vehicle: Klucel (hydroxypropylcellulose) (HPC)
  T/C: 87 % of control

## COC(=O)c1nc(N)nc(C(=O)OC)c1C(=O)c1ccc(OC)cc1
[10]
  T/C: 101 % of control
[11]
  T/C: 101 % of control

## Cc1ccc2sc(-c3ccccc3)c(CCl)c(=O)c2c1
dose: 100.0 mg/kg/injection, schedule: Q04DX002 (ip), vehicle: saline with Tween-80
  T/C: 102 % of control
dose: 200.0 mg/kg/injection, schedule: Q04DX002 (ip), vehicle: saline with Tween-80
  T/C: 108 % of control
dose: 400.0 mg/kg/injection, schedule: Q04DX002 (ip), vehicle: saline with Tween-80
  T/C: 108 % of control

## COc1cc2c(c(OC)c1OC)-c1cc3c(cc1C(OC(C)=O)C1COC(=O)C1C2)OCO3 (stereo unspecified)
dose: 0.5 mg/kg/injection, schedule: Q04DX002 (ip), vehicle: acetone
  T/C: 97 % of control and 104 % of control
dose: 1.0 mg/kg/injection, schedule: Q04DX002 (ip), vehicle: acetone
  T/C: 102 % of control and 94 % of control
dose: 2.0 mg/kg/injection, schedule: Q04DX002 (ip), vehicle: acetone
  T/C: 97 % of control and 104 % of control

## N#CCCn1nc(Sc2ccccc2)c(=O)[nH]c1=O
[12]
  T/C: 95 % of control
[13]
  T/C: 100 % of control
[14]
  T/C: 94 % of control
[15]
  T/C: 100 % of control
dose: 200.0 mg/kg/injection, schedule: Q01DX005 (ip), vehicle: saline with Tween-80
  T/C: 94 % of control
[16]
  T/C: 95 % of control

## S=C1N(c2ccc(Cl)cc2)C2=C(N=Nc3ccccc3)C(=Nc3ccccc3S2)N1c1ccccn1
[12]
  T/C: 109 % of control
[14]
  T/C: 108 % of control

## O=[N+]([O-])c1cc2[nH]cnc2c([N+](=O)[O-])c1Nc1ccccc1
[7]
  T/C: 102 % of control
[8]
  T/C: 93 % of control
[9]
  T/C: 101 % of control

## COC1OC(CS[As](C)C)C(O)C(O)C1O (stereo unspecified)
dose: 6.25 mg/kg/injection, schedule: Q01DX009 (ip), vehicle: Klucel (hydroxypropylcellulose) (HPC)
  T/C: 95 % of control
dose: 12.5 mg/kg/injection, schedule: Q01DX009 (ip), vehicle: Klucel (hydroxypropylcellulose) (HPC)
  T/C: 100 % of control
dose: 25.0 mg/kg/injection, schedule: Q01DX009 (ip), vehicle: Klucel (hydroxypropylcellulose) (HPC)
  T/C: 103 % of control
dose: 50.0 mg/kg/injection, schedule: Q01DX009 (ip), vehicle: Klucel (hydroxypropylcellulose) (HPC)
  T/C: 106 % of control

## CC(=O)Nc1scc[n+]1Cc1ccccc1
[3]
  T/C: 100 % of control
[4]
  T/C: 100 % of control
[5]
  T/C: 91 % of control

## CNc1ccc2[nH]c3ccccc3c2c1
[13]
  T/C: 104 % of control
[15]
  T/C: 112 % of control
[16]
  T/C: 104 % of control

## CC[N+]1=C(C2=NCCc3ccccc32)c2ccccc2CC1
dose: 12.5 mg/kg/injection, schedule: Q01DX005 (ip), vehicle: saline
  T/C: 104 % of control
dose: 25.0 mg/kg/injection, schedule: Q01DX005 (ip), vehicle: saline
  T/C: 98 % of control
[12]
  T/C: 92 % of control
dose: 50.0 mg/kg/injection, schedule: Q01DX005 (ip), vehicle: saline
  T/C: 100 % of control

## O=[N+]([O-])c1ccc(N/N=C\c2c(Cl)[nH]c3ccccc23)c([N+](=O)[O-])c1
[6]
  T/C: 93 % of control
dose: 100.0 mg/kg/injection, schedule: Q01DX009 (ip), vehicle: saline with Tween-80
  T/C: 93 % of control
dose: 200.0 mg/kg/injection, schedule: Q01DX009 (ip), vehicle: saline with Tween-80
  T/C: 87 % of control

## COc1ccc(NS(=O)(=O)c2ccc(NC(=O)NCCCl)cc2)nn1
dose: 25.0 mg/kg/injection, schedule: Q01DX005 (ip), vehicle: Klucel (hydroxypropylcellulose) (HPC)
  T/C: 98 % of control
[3]
  T/C: 98 % of control
[5]
  T/C: 98 % of control

## NC(CC(=O)CCl)C(=O)O (stereo unspecified)
dose: 5.0 mg/kg/injection, schedule: Q01DX009 (ip), vehicle: saline with Tween-80
  T/C: 154 % of control
dose: 6.25 mg/kg/injection, schedule: Q04DX003 (ip), vehicle: saline
  T/C: 150 % of control
dose: 10.0 mg/kg/injection, schedule: Q01DX009 (ip), vehicle: saline with Tween-80
  T/C: 168 % of control
dose: 12.5 mg/kg/injection, schedule: Q04DX003 (ip), vehicle: saline
  T/C: 166 % of control
dose: 20.0 mg/kg/injection, schedule: Q01DX009 (ip), vehicle: saline with Tween-80
  T/C: 159 % of control
dose: 50.0 mg/kg/injection, schedule: Q04DX003 (ip), vehicle: saline
  T/C: 176 % of control

## CCOC(=O)c1c(NC(=O)c2ccccc2)sc2c(=O)oc(-c3ccccc3)nc12
[3]
  T/C: 97 % of control
[4]
  T/C: 90 % of control
[5]
  T/C: 90 % of control

## CSc1ccc(N2C(=O)CSC2=S)cc1Cl
dose: 50.0 mg/kg/injection, schedule: Q01DX009 (ip), vehicle: suspension in saline
  T/C: 101 % of control
dose: 100.0 mg/kg/injection, schedule: Q01DX009 (ip), vehicle: suspension in saline
  T/C: 99 % of control
dose: 200.0 mg/kg/injection, schedule: Q01DX009 (ip), vehicle: suspension in saline
  T/C: 104 % of control

## CN(C)C1C(O)C2Oc3c(cc(O)c4c3C(=O)c3cc5c(c(O)c3C4=O)C(N=[N+]=N)CC(C)(O)C5)C(C)(O2)C1O (stereo unspecified)
dose: 0.31 mg/kg/injection, schedule: Q01DX009 (ip), vehicle: other
  T/C: 107 % of control
dose: 0.62 mg/kg/injection, schedule: Q01DX009 (ip), vehicle: other
  T/C: 107 % of control
dose: 1.25 mg/kg/injection, schedule: Q01DX009 (ip), vehicle: other
  T/C: 108 % of control
dose: 10.0 mg/kg/injection, schedule: Q01DX009 (ip), vehicle: other
  T/C: 120 % of control

## CC1(C)CC2(CC(C)(C)N1O)NC(=O)OC2=O
[13]
  T/C: 97 % of control
[15]
  T/C: 97 % of control
[16]
  T/C: 106 % of control

## O=C(c1ccccc1)C1COc2ccccc2C1O (stereo unspecified)
[13]
  T/C: 109 % of control
[15]
  T/C: 94 % of control
[16]
  T/C: 94 % of control
